What was measured:
PHBPU [1] = test: Post-emergence action against PHBPU; format: in vivo, Pharbitis purpurea; conditions: post-emergence, dosage 80 g/ha
Outline: (§1)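 Weeds grown in sandy loam in greenhouse, treated at one-leaf stage (2–3 weeks after sowing) with WP or EC formulations sprayed as aqueous suspension/emulsion at 600 to […] water with 0.2% wetting agent. Visual rating after about 3 weeks versus untreated controls, as % herbicidal action (100% = plants dead, 0% = like control).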

AVEFA [2] = test: Post-emergence action against AVEFA; format: in vivo, Avena fatua; conditions: post-emergence, dosage 80 g/ha, visual assessment about 3 weeks after treatment vs untreated controls
Outline: as §1

ABUTH [3] = test: Pre-emergence action against ABUTH; format: in vivo, Abutilon theophrasti; conditions: for Pre-emergence action against ABUTH (herbicidal activity): dosage 320 g/ha, scored visually after 3 weeks vs untreated controls
Outline: (§2)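 Seeds sown in sandy loam in wood-fiber pots and covered with soil. Greenhouse growth; visual damage scored after 3 weeks versus untreated controls (100% = dead, 0% = like control).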

MATIN [4] = test: Post-emergence action against MATIN; format: in vivo, Matricaria inodora; conditions: for Post-emergence action against MATIN (herbicidal action in percent): dosage 80 g/ha, visual assessment about 3 weeks after treatment vs untreated controls
Outline: as §1

MATIN [5] = test: Pre-emergence action against MATIN; format: in vivo, Matricaria inodora; conditions: for Pre-emergence action against MATIN: Dosage 320 g/ha
Outline: as §2

VERPE [6] = test: Pre-emergence action against VERPE; format: in vivo, Veronica persica; conditions: Dosage 320 g/ha, pre-emergence
Outline: as §2

VERPE [7] = test: Post-emergence action against VERPE; format: in vivo, Veronica persica; conditions: dosage 80 g/ha
Outline: as §1

ABUTH [8] = test: Post-emergence action against ABUTH; format: in vivo, Abutilon theophrasti; conditions: for Post-emergence action against ABUTH (herbicidal action in percent): dosage 80 g/ha, visual assessment about 3 weeks after treatment vs untreated controls
Outline: as §1

STEME [9] = test: Post-emergence action against STEME; format: in vivo, Stellaria media; conditions: post-emergence, dosage 80 g/ha
Outline: as §1

SETVI [10] = test: Post-emergence action against SETVI; format: in vivo, Setaria viridis; conditions: post-emergence, dosage 80 g/ha, visual assessment about 3 weeks after treatment vs untreated controls
Outline: as §1

AMARE [11] = test: Pre-emergence action against AMARE; format: in vivo, Amaranthus retroflexus; conditions: for Pre-emergence action against AMARE (herbicidal activity): dosage 320 g/ha, scored visually after 3 weeks vs untreated controls
Outline: as §2

AVEFA [12] = test: Pre-emergence action against AVEFA; format: in vivo, Avena fatua; conditions: dosage 320 g/ha, scored visually after 3 weeks vs untreated controls
Outline: as §2

ECHCG [13] = test: Pre-emergence action against ECHCG; format: in vivo, Echinochloa crus-galli; conditions: pre-emergence, dosage 320 g/ha, scored visually after 3 weeks vs untreated controls
Outline: as §2

VIOTR [14] = test: Post-emergence action against VIOTR; format: in vivo, Viola tricolor; conditions: for Post-emergence action against VIOTR: dosage 80 g/ha
Outline: as §1

SETVI [15] = test: Pre-emergence action against SETVI; format: in vivo, Setaria viridis; conditions: pre-emergence, dosage 320 g/ha, scored visually after 3 weeks vs untreated controls
Outline: as §2

CYPES [16] = test: Pre-emergence action against CYPES; format: in vivo, Cyperus esculentus; conditions: pre-emergence, dosage 320 g/ha, scored visually after 3 weeks vs untreated controls
Outline: as §2

ECHCG [17] = test: Post-emergence action against ECHCG; format: in vivo, Echinochloa crus-galli; conditions: post-emergence, dosage 80 g/ha, visual assessment about 3 weeks after treatment vs untreated controls
Outline: as §1

VIOTR [18] = test: Pre-emergence action against VIOTR; format: in vivo, Viola tricolor; conditions: for Pre-emergence action against VIOTR: Dosage 320 g/ha; for Herbicidal efficacy against VIOTR: 20 g of a.i./ha
Outline: as §2

POLCO [19] = test: Post-emergence action against POLCO; format: in vivo, Polygonum convolvulus; conditions: for Post-emergence action against POLCO: dosage 80 g/ha
Outline: as §1

CYPES [20] = test: Post-emergence action against CYPES; format: in vivo, Cyperus esculentus; conditions: for Post-emergence action against CYPES (herbicidal action in percent): dosage 80 g/ha, visual assessment about 3 weeks after treatment vs untreated controls
Outline: as §1

ALOMY [21] = test: Pre-emergence action against ALOMY; format: in vivo, Alopecurus myosuroides; conditions: dosage 320 g/ha; pre-emergence; scored visually after 3 weeks vs untreated controls; 100% = plants have died, 0% = like control plants
Outline: as §2

ALOMY [22] = test: Post-emergence action against ALOMY; format: in vivo, Alopecurus myosuroides; conditions: for Post-emergence action against ALOMY: Dosage 80 g/ha
Outline: as §1

STEME [23] = test: Pre-emergence action against STEME; format: in vivo, Stellaria media; conditions: Dosage 320 g/ha, pre-emergence
Outline: as §2

POLCO [24] = test: Pre-emergence action against POLCO; format: in vivo, Polygonum convolvulus; conditions: Dosage 320 g/ha, pre-emergence
Outline: as §2

AMARE [25] = test: Post-emergence action against AMARE; format: in vivo, Amaranthus retroflexus; conditions: post-emergence, dosage 80 g/ha, visual assessment about 3 weeks after treatment vs untreated controls
Outline: as §1

PHBPU [26] = test: Pre-emergence action against PHBPU; format: in vivo, Pharbitis purpurea; conditions: Dosage 320 g/ha, pre-emergence
Outline: as §2

[27] = Table V7, pre-emergence, 20 g of a.i./ha
[28] = Table V17, post-emergence, 5 g of a.i./ha
[29] = Table V20, post-emergence, 80 g of a.i./ha

Compound	Post-emergence action against PHBPU (PHBPU [1])	Post-emergence action against AVEFA (herbicidal action in percent) (AVEFA [2])	Pre-emergence action against ABUTH (herbicidal activity) (ABUTH [3])	Post-emergence action against MATIN (herbicidal action in percent) (MATIN [4])	Pre-emergence action against MATIN (MATIN [5])	Pre-emergence action against VERPE (VERPE [6])	Post-emergence action against VERPE (VERPE [7])	Post-emergence action against ABUTH (herbicidal action in percent) (ABUTH [8])	Post-emergence action against STEME (STEME [9])	Post-emergence action against SETVI (herbicidal action in percent) (SETVI [10])	Pre-emergence action against AMARE (herbicidal activity) (AMARE [11])	Pre-emergence action against AVEFA (herbicidal activity) (AVEFA [12])	Pre-emergence action against ECHCG (herbicidal activity) (ECHCG [13])	Post-emergence action against VIOTR (VIOTR [14])	SETVI (Table B8, pre-emergence herbicidal activity) (SETVI [15])	Pre-emergence action against CYPES (herbicidal activity) (CYPES [16])	Post-emergence action against ECHCG (herbicidal action in percent) (ECHCG [17])	Pre-emergence action against VIOTR (VIOTR [18])	Post-emergence action against POLCO (POLCO [19])	Post-emergence action against CYPES (herbicidal action in percent) (CYPES [20])	other results
CCCn1nnnc1NC(=O)c1ccc(C(F)(F)F)c(C(=O)C2CC2)c1C [3-18]	90	80%	100%	90%	100%	90%	80	80%	100	100%	100%	80%	100%	100	100%	90%	80%	100%	80	90%	Pre-emergence action against ALOMY (herbicidal activity in percent) (ALOMY [21]): 80%; Post-emergence action against ALOMY (ALOMY [22]): 80%; Pre-emergence action against STEME (STEME [23]): 100%
CCn1nnnc1NC(=O)c1ccc(S(C)(=O)=O)c(C(=O)C2CC2)c1C [2-9]	100	100%	100%	100%	100%	100%	100	90%	100	90%	100%	100%	100%	100	100%	90%	90%	100%	100	90%	Herbicidal efficacy against ABUTH (ABUTH [3]; [27]): 100; Pre-emergence action against POLCO (POLCO [24]): 80%; Herbicidal efficacy against MATIN (MATIN [4]; [28]): 90; Herbicidal efficacy against MATIN (MATIN [5]; [27]): 80; Post-emergence action against AMARE (herbicidal action in percent) (AMARE [25]): 100%; Herbicidal efficacy against ABUTH (ABUTH [8]; [29]): 90; Herbicidal efficacy against AMARE (AMARE [11]; Table V13, pre-emergence, 20 g of a.i./ha): 100; Pre-emergence action against PHBPU (PHBPU [26]): 90%; Herbicidal efficacy against VIOTR (VIOTR [14]; [28]): 100; Herbicidal efficacy against VIOTR (VIOTR [18]; Table V7, pre-emergence): 90; Herbicidal efficacy against VIOTR (VIOTR [18]; Table V13, pre-emergence): 90; Herbicidal efficacy against POLCO (POLCO [19]; [29]): 100; Herbicidal efficacy against CYPES (CYPES [20]; [29]): 90; Pre-emergence action against ALOMY (herbicidal activity in percent) (ALOMY [21]): 90%; Post-emergence action against ALOMY (ALOMY [22]): 90%; Herbicidal efficacy against ALOMY (ALOMY [22]; [29]): 90
